Data from US20140336109A1, “MODULATION OF GHRELIN LEVELS AND GHRELIN/UNACYLATED GHRELIN RATIO USING UNACYLATED GHRELIN” (Alize Pharma SAS, priority 2011, published 2014).
Where no end group is shown, it is not given here.

How the values were obtained:
T2DM subjects = experiment: Side effects and laboratory safety parameters during UAG infusion; type: in vivo, human; settings: during infusions with UAG 3 and 10 μg/kg/hr, 15 hours
Procedure: A continuous overnight (15 hours) infusion of two doses of UAG (3 μg UAG/kg/hr and 10 μg UAG/kg/hr) versus placebo in a cross-over model on the AG concentrations was performed in eight overweight subjects with type 2 diabetes. FIG. 1 depicts a schematic representation of the study protocol. Glucose and insulin responses to a standard breakfast meal (SBM) in the subjects and reasonable metabolic control were assessed.
Study design—Single-center, investigator initiated, double blind and placebo controlled randomized study. During the first visit medical history, medication use and vital signs of subjects were checked. Blood samples were also taken for chemistry and hematology analysis. […]
Standard breakfast meal (SBM) consisted of: • 3 slices wheat bread; p1 3 portions of margarine; • 2 slices of cheese (48% fat); • 1 portion of jam; • 1 cup of whole milk; and • 1 boiled egg; for a total of 714 kcal (17% proteins; 46% fat; and 37% carbohydrates). […] At each of the 3 visits, the following safety parameters were assessed: hemoglobin, hematocrit, platelet count, WBC count, RBC count, and differential and were determined using Sysmex XE 2100, Firma Sysmex, Ecustraat 11, 4879 NP Etten-Leur. […] Serum glucose levels (using the in-house glucokinase assay) were also assessed every 30 minutes and starting before, and continuing for 4 hours after, the SBM. […]

[1] = U.S. Pat. Nos. 8,222,217 and 8,318,664; cited from earlier work
Sprague-Dawley rats = experiment: AG-induced food intake in rats; type: in vivo; settings: rat; i.p. 42 μg/kg + AG 13 μg/kg; 30 min, 1 h, 2 h
Procedure: With respect to the experimental data presented in FIG. 8, Sprague-Dawley rats of 7 weeks of age, weighing between 275 g and 300 g, were fed a pellet diet ad libitum and were singly housed in plastic cage. The experiment was performed at 2.5 h after the onset of the light cycle in freely fed rats. The rates were i.p. injected simultaneously with vehicle plus vehicle, vehicle+AG (13 μg/kg) or cyclised UAG (6-13) (SEQ ID NO: 25) (42 μg/kg)+AG (13 μg/kg). Immediately after the completion of the i.p. injection in rats, the night-ad-libitum food was removed and replaced by 2 pellets for each animal, previously weighed, placed into the top of the cage. Food intake was calculated as the difference between the food weight before and after the feeding period at each time interval (30 min, 1 h, and 2 h). Cumulative food intake was calculated by summating the values of the different time periods.

## CC(C)C[C@H](NC(=O)[C@H](CCCCN)NC(=O)[C@H](C)NC(=O)[C@@H]1CCCN1C(=O)[C@@H]1CCCN1C(=O)[C@H](CCCCN)NC(=O)[C@H](CCCCN)NC(=O)[C@H](CO)NC(=O)[C@H](CCC(=O)O)NC(=O)[C@H](CCCCN)NC(=O)[C@H](CCCNC(=N)N)NC(=O)[C@H](CCC(N)=O)NC(=O)[C@H](CCC(N)=O)NC(=O)[C@@H](NC(=O)[C@H](CCCNC(=N)N)NC(=O)[C@H](CCC(N)=O)NC(=O)[C@H](Cc1cnc[nH]1)NC(=O)[C@H](CCC(=O)O)NC(=O)[C@@H]1CCCN1C(=O)[C@H](CO)NC(=O)[C@H](CC(C)C)NC(=O)[C@H](Cc1ccccc1)NC(=O)[C@H](CO)NC(=O)[C@H](CO)NC(=O)CN)C(C)C)C(=O)N[C@@H](CCC(N)=O)C(=O)N1CCC[C@H]1C(=O)N[C@@H](CCCNC(=N)N)C(=O)O [UAG]
T2DM subjects
  laboratory evaluations (chemistry or parameters): no significant changes
  side effects reported by subjects: did not report more side effects than placebo

## EHQRVQ [UAG (8-13)]
[1]
  activity on glucose, insulin and lipid metabolisms relative to UAG full length: retain the activity of UAG full length

## Glu-His-Gln-Arg (EHQR; listed as Homo sapiens) [UAG (8-11)]
[1]
  activity on glucose, insulin and lipid metabolisms relative to UAG full length: retain the activity of UAG full length

## Glu-His-Gln-Arg-Val (EHQRV; listed as Homo sapiens) [UAG (8-12)]
[1]
  activity on glucose, insulin and lipid metabolisms relative to UAG full length: retain the activity of UAG full length

## His-Gln-Arg (HQR; listed as Homo sapiens) [UAG (9-11)]
[1]
  activity on glucose, insulin and lipid metabolisms relative to UAG full length: retain the activity of UAG full length

## His-Gln-Arg-Val (HQRV; listed as Homo sapiens) [UAG (9-12)]
[1]
  activity on glucose, insulin and lipid metabolisms relative to UAG full length: retain the activity of UAG full length

## SPEHQRVQ [UAG (6-13)]
[1]
  activity on glucose, insulin and lipid metabolisms relative to UAG full length: retain the activity of UAG full length

## Ser-Pro-Glu-His-Gln-Arg-Val-Gln (cycl) (SPEHQRVQ; also: cyclic, linkage type not given here; listed as Homo sapiens) [cyclic UAG (6-13)]
Sprague-Dawley rats
  orexigenic effects (food intake) induced by AG: able to counteract the orexigenic effects induced by AG
